As usually defined, the IC50 is the concentration needed to halve the response being measured.

One test concerns the target T1, His-TEV-DYRK1A Kinase domain (aa127-485) (Homo sapiens, UniProt Q13627).
T1 construct: His-TEV-DYRK1A Kinase domain (aa127-485); His (N); TEV cleavage site (N)
The test can be described thus: Kinase ADP assay (ADP Hunter Plus). The class given is biochemical.
Settings: not given
Consider `COc1cc(F)ccc1CNc1nc(C)nc2[nH]cc(-c3ccnc(N)c3)c12` [Example 84, 5-(2-aminopyridin-4-yl)-N-(4-fluoro-2-methoxybenzyl)-2-methyl-7H-pyrrolo[2,3-d]pyrimidin-4-amine], for which the half-inhibitory concentration (IC50) worked out at 0.006 µM.
Consider `Cc1nc(N2CCOCC2)c2c(-c3cc(N)nc(N)c3)c[nH]c2n1` [Example 140, 4-[2-methyl-4-(morpholin-4-yl)-7H-pyrrolo[2,3-d]pyrimidin-5-yl]pyridine-2,6-diamine], for which the IC50 was 1.22 µM.
Same read-out and setting: the figure for `Cc1nc(N2CCn3ccnc3C2)c2c(-c3cc(N)nc(N)c3)c[nH]c2n1` [Example 141, 4-[4-(5,6-dihydroimidazo[1,2-a]pyrazin-7(8H)-yl)-2-methyl-7H-pyrrolo[2,3-d]pyrimidin-5-yl]pyridine-2,6-diamine] is 0.417 µM.
Same read-out and setting: next, `Cc1nc(N2CCc3nccnc3C2)c2c(-c3cc(N)nc(N)c3)c[nH]c2n1` [Example 142, 4-[4-(7,8-dihydropyrido[3,4-b]pyrazin-6(5H)-yl)-2-methyl-7H-pyrrolo[2,3-d]pyrimidin-5-yl]pyridine-2,6-diamine]: 0.512 µM; `Cc1nc(N2CCOC(C)C2)c2c(-c3cc(N)nc(N)c3)c[nH]c2n1` (stereo not drawn) [Example 143, 4-[2-methyl-4-(2-methylmorpholin-4-yl)-7H-pyrrolo[2,3-d]pyrimidin-5-yl]pyridine-2,6-diamine]: 1.06 µM.
On to `COC1CCCN(c2nc(C)nc3[nH]cc(-c4cc(N)nc(N)c4)c23)C1` (stereo not drawn) [Example 144, 4-[4-(3-methoxypiperidin-1-yl)-2-methyl-7H-pyrrolo[2,3-d]pyrimidin-5-yl]pyridine-2,6-diamine], for which the IC50 was determined as 0.545 µM.
Same read-out and setting: next, `COc1cccc(C(F)(F)F)c1CNc1nc(C)nc2[nH]cc(-c3ccnc(C)c3)c12` [Example 146, N-[2-methoxy-6-(trifluoromethyl)benzyl]-2-methyl-5-(2-methylpyridin-4-yl)-7H-pyrrolo[2,3-d]pyrimidin-4-amine]: 0.172 µM; `Nc1cc(-c2c[nH]c3nc(C4CC4)nc(NCc4c(F)cccc4F)c23)ccn1` [Example 147, 5-(2-aminopyridin-4-yl)-2-cyclopropyl-N-(2,6-difluorobenzyl)-7H-pyrrolo[2,3-d]pyrimidin-4-amine]: 0.17 µM; `C=C(C)c1nc(NCc2c(F)cccc2F)c2c(-c3ccnc(N)c3)c[nH]c2n1` [Example 149, 5-(2-aminopyridin-4-yl)-N-(2,6-difluorobenzyl)-2-(prop-1-en-2-yl)-7H-pyrrolo[2,3-d]pyrimidin-4-amine]: 0.734 µM.
Same read-out and setting: the figure for `C=Cc1nc(NCc2c(F)cccc2F)c2c(-c3ccnc(N)c3)c[nH]c2n1` [Example 151, 5-(2-aminopyridin-4-yl)-N-(2,6-difluorobenzyl)-2-ethenyl-7H-pyrrolo[2,3-d]pyrimidin-4-amine] is 0.028 µM; for `C#Cc1nc(-c2ccc3c(c2)OCO3)c2c(-c3cc(N)nc(N)c3)c[nH]c2n1` [Example 155, 4-[4-(1,3-benzodioxol-5-yl)-2-ethynyl-7H-pyrrolo[2,3-d]pyrimidin-5-yl]pyridine-2,6-diamine] it is 0.024 µM; for `C#Cc1nc(-c2ccc3c(c2)OCO3)c2c(-c3ccnc(N)c3)c[nH]c2n1` [Example 156, 4-[4-(1,3-benzodioxol-5-yl)-2-ethynyl-7H-pyrrolo[2,3-d]pyrimidin-5-yl]pyridin-2-amine] it is 0.029 µM.
Still for that read-out and setting: the figure for `N#Cc1nc(NCc2c(F)cccc2F)c2c(-c3ccnc(N)c3)c[nH]c2n1` [Example 157, 5-(2-aminopyridin-4-yl)-4-[(2,6-difluorobenzyl)amino]-7H-pyrrolo[2,3-d]pyrimidine-2-carbonitrile] is 0.26 µM; for `Cc1nc(CCc2ccccc2)c2c(-c3ccnc(N)c3)c[nH]c2n1` [Example 160] it is 0.184 µM; for `COc1cc(F)cc(-c2nc(C)nc3[nH]cc(-c4ccnc(N)c4)c23)c1` [Example 162, 4-[4-(3-fluoro-5-methoxyphenyl)-2-methyl-7H-pyrrolo[2,3-d]pyrimidin-5-yl]pyridin-2-amine] it is 0.014 µM.
Consider `Cc1nc(-c2ccc(CN3CCCC3)cc2)c2c(-c3ccnc(N)c3)c[nH]c2n1` [Example 165], for which the IC50 is 0.301 µM.
As for `Cc1nc(-c2cccc(C(F)(F)F)c2)c2c(-c3ccnc(N)c3)c[nH]c2n1` [Example 168, 4-{2-methyl-4-[3-(trifluoromethyl)phenyl]-7H-pyrrolo[2,3-d]pyrimidin-5-yl}pyridin-2-amine], the IC50 stood at 0.01 µM.
Same read-out and setting: the figure for `Cc1nc(-c2ccc(CN3CCN(C)CC3)cc2)c2c(-c3ccnc(N)c3)c[nH]c2n1` [Example 169, 4-(2-methyl-4-{4-[(4-methylpiperazin-1-yl)methyl]phenyl}-7H-pyrrolo[2,3-d]pyrimidin-5-yl)pyridin-2-amine] is 0.216 µM; for `Cc1nc(-c2cncc(F)c2)c2c(-c3ccnc(N)c3)c[nH]c2n1` [Example 170] it is 1.82 µM; for `Cc1nc(-c2cccc(N3CCCC3)c2)c2c(-c3ccnc(N)c3)c[nH]c2n1` [Example 171] it is 0.033 µM.
The same measure, in the same setting: next, `CCOc1ccc(-c2nc(C)nc3[nH]cc(-c4ccnc(N)c4)c23)cc1` [Example 172]: 0.037 µM; `Cc1nc(-c2cccc(OCCCN3CCOCC3)c2)c2c(-c3ccnc(N)c3)c[nH]c2n1` [Example 174, 4-(2-methyl-4-{3-[3-(morpholin-4-yl)propoxy]phenyl}-7H-pyrrolo[2,3-d]pyrimidin-5-yl)pyridin-2-amine]: 0.07 µM.
For `Cc1nc(-c2ccc(C#N)c(F)c2)c2c(-c3ccnc(N)c3)c[nH]c2n1` [Example 175], the IC50 came to 0.146 µM.
Same read-out and setting: next, `Cc1nc(CN2CCC(F)(F)C2)c2c(-c3ccnc(N)c3)c[nH]c2n1` [Example 176]: 0.196 µM; `Cc1nc(CN2CCCC(F)(F)C2)c2c(-c3ccnc(N)c3)c[nH]c2n1` [Example 177]: 0.532 µM.
`Cc1nc(-c2cc(F)cc(F)c2)c2c(-c3ccnc(N)c3)c[nH]c2n1` [Example 180]: the IC50 was 0.079 µM.
On the same count and under the same terms, next, `Cc1nc(C2CCc3ccccc3C2)c2c(-c3ccnc(N)c3)c[nH]c2n1` (stereo not drawn) [Example 188]: 0.07 µM; `Cc1nc([C@H]2CCc3ccccc3C2)c2c(-c3ccnc(N)c3)c[nH]c2n1` [Example 189]: 0.062 µM; `Cc1nc([C@@H]2CCc3ccccc3C2)c2c(-c3ccnc(N)c3)c[nH]c2n1` [Example 190]: 0.419 µM.
On the same count and under the same terms, next, `Cc1nc(COc2ccccc2C(F)(F)F)c2c(-c3ccnc(N)c3)c[nH]c2n1` [Example 193, 4-(2-methyl-4-{[2-(trifluoromethyl)phenoxy]methyl}-7H-pyrrolo[2,3-d]pyrimidin-5-yl)pyridin-2-amine]: 0.116 µM; `COc1ccccc1C#Cc1nc(C)nc2[nH]cc(-c3ccnc(N)c3)c12` [Example 197]: 0.009 µM; `Cc1nc(-c2cccc(OCCCN3CCCCC3)c2)c2c(-c3ccnc(N)c3)c[nH]c2n1` [Example 199]: 0.148 µM.
Same read-out and setting: the figure for `Cc1nc(-c2cccc(OCCCN3CCN(C)CC3)c2)c2c(-c3ccnc(N)c3)c[nH]c2n1` [Example 200] is 0.027 µM.
`Cc1nc(-c2cccc(OCCCl)c2)c2c(-c3ccnc(N)c3)c[nH]c2n1` [Example 201]: the IC50 is 0.012 µM.
On the same count and under the same terms, the figure for `Cc1nc(-c2cccc(OCCN3CCCC3)c2)c2c(-c3ccnc(N)c3)c[nH]c2n1` [Example 202] is 0.144 µM.
On to `Cc1nc(-c2cccc(OCCN(C)C)c2)c2c(-c3ccnc(N)c3)c[nH]c2n1` [Example 203], for which the IC50 is 0.155 µM.
Still for that read-out and setting: the figure for `Cc1nc(-c2cccc(OCCN3CCOCC3)c2)c2c(-c3ccnc(N)c3)c[nH]c2n1` [Example 204] is 0.089 µM; for `Cc1cc(-c2c[nH]c3nc(C)nc(NCc4c(F)cccc4F)c23)nc(N)n1` [Example 205, 5-(2-amino-6-methylpyrimidin-4-yl)-N-(2,6-difluorobenzyl)-2-methyl-7H-pyrrolo[2,3-d]pyrimidin-4-amine] it is 0.055 µM; for `Cc1nc(-c2ccc3c(c2)OC(F)(F)O3)c2c(-c3ccnc(N)n3)c[nH]c2n1` [Example 210, 4-[4-(2,2-difluoro-1,3-benzodioxol-5-yl)-2-methyl-7H-pyrrolo[2,3-d]pyrimidin-5-yl]pyrimidin-2-amine] it is 0.05 µM.
As for `C#Cc1nc(N2CCc3ccccc3C2)c2c(-c3ccnc(N)n3)c[nH]c2n1` [Example 211, 4-[4-(3,4-dihydroisoquinolin-2(1H)-yl)-2-ethynyl-7H-pyrrolo[2,3-d]pyrimidin-5-yl]pyrimidin-2-amine], the IC50 was 0.027 µM.
Still for that read-out and setting: next, `Cc1nc(NCc2c(F)cccc2F)c2c(-c3cc(N)ncn3)c[nH]c2n1` [Example 212, 5-(6-aminopyrimidin-4-yl)-N-(2,6-difluorobenzyl)-2-methyl-7H-pyrrolo[2,3-d]pyrimidin-4-amine]: 0.009 µM.
The same measure, in the same setting: next, `Cc1cc(-c2cncc(F)c2)c2c(-c3ccnc(N)c3)c[nH]c2n1` [Example 214, 4-[4-(5-fluoropyridin-3-yl)-6-methyl-1H-pyrrolo[2,3-b]pyridin-3-yl]pyridin-2-amine]: 0.242 µM; `N#Cc1cc(-c2ccc3c(c2)OCO3)c2c(-c3ccnc(N)c3)c[nH]c2n1` [Example 223, 3-(2-aminopyridin-4-yl)-4-(1,3-benzodioxol-5-yl)-1H-pyrrolo[2,3-b]pyridine-6-carbonitrile]: 0.043 µM; `Cc1cc(-c2ccc3c(c2)N(C)CCO3)c2c(-c3ccnc(N)c3)c[nH]c2n1` [Example 225, 4-[6-methyl-4-(4-methyl-3,4-dihydro-2H-1,4-benzoxazin-6-yl)-1H-pyrrolo[2,3-b]pyridin-3-yl]pyridin-2-amine]: 0.037 µM.

The target in another test is T2, phospho-Ser520-DYRK1A (Homo sapiens, UniProt Q13627).
T2 construct: full-length, wild-type human DYRK1A (NM_001396) with an HA tag; expressed in transfected cells; host or cells: human U2-OS osteosarcoma cells, pcDNA3.1 plasmid
The test can be described thus: Cellular DYRK1A autophosphorylation assay in U2-OS cells. The class given is cell-based. To be noted: 5 hours exposure, read-out: IC50 (μM) P-Ser520-Dyrk1A-Cell assay.
As to `COc1cc(F)ccc1CNc1nc(C)nc2[nH]cc(-c3ccnc(N)c3)c12` [Example 84, 5-(2-aminopyridin-4-yl)-N-(4-fluoro-2-methoxybenzyl)-2-methyl-7H-pyrrolo[2,3-d]pyrimidin-4-amine], the IC50 was 0.0097 µM.

Source of the values: patent US20180273538A1, “PYRROLO[2,3-d]PYRIMIDINE DERIVATIVES, A PROCESS FOR THEIR PREPARATION AND PHARMACEUTICAL COMPOSITIONS CONTAINING THEM” (LES LABORATOIRES SERVIER, priority 2015, published 2018).
